Biological target: T1, human type 1 glycine transporter (GlyT1) (Homo sapiens, UniProt P48067)
T1 construct: T98G cells (glioma cells) expressing human type 1 glycine transporter (GlyT1) were used; endogenous in cells; host or cells: T98G cells (human glioma)
T1 sequence (P48067 1-706): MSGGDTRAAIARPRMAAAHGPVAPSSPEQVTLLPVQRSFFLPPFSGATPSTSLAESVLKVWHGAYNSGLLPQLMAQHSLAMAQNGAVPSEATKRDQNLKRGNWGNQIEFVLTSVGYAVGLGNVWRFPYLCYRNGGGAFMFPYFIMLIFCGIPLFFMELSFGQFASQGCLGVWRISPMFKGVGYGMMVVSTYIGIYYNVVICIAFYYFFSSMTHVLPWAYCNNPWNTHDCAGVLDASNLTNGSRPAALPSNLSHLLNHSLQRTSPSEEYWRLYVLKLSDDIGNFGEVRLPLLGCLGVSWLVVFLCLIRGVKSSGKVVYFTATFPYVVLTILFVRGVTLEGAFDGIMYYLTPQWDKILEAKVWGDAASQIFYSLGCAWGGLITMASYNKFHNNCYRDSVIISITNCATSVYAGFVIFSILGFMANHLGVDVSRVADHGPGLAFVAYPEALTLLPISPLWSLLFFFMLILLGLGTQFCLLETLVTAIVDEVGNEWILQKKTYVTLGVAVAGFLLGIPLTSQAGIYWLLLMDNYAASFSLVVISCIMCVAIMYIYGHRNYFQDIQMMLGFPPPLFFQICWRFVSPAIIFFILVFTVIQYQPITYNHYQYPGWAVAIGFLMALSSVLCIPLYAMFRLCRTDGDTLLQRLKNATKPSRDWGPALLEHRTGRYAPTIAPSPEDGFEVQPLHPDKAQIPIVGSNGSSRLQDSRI
Assay: Glycine uptake inhibition experiment ([3H] glycine uptake)
Format: cell-based
Conditions: T98G cells (glioma cells) expressing human GlyT1; [3H] glycine 250 nM; 10-min pretreatment, 15 minutes at room temperature; read-out: glycine uptake inhibitory activity (IC50 value)
Protocol: A glycine uptake experiment was conducted in accordance with the method published in Neuron, 8, 927-935, 1992. In the experiment, T98G cells (glioma cells) expressing human type 1 glycine transporter (GlyT1) were used. The T98G cells were seeded in a 96-well plate at 2.0×10^4 cells/well and cultured overnight in a CO2 incubator. The test substance was dissolved in a 100% DMSO solution and then dissolved in a 10 mM HEPES buffer solution (pH 7.4) containing 150 mM sodium chloride, 1 mM calcium chloride, 5 mM potassium chloride, 1 mM magnesium chloride, 10 mM glucose and 0.2% bovine serum albumin. After removing the cell culture medium, the test substance was subjected to a 10-min pretreatment. Subsequently, the test substance and [^3H] glycine (final concentration: 250 nM) were added to the cells and reaction was performed at room temperature for 15 minutes. After the end of the reaction, the extracellular fluid was aspirated with a manifold to remove excess labeled glycine present outside the cells, and then the cells were lysed with a 0.5 M aqueous sodium hydroxide solution. The glycine content in the cells was determined by measuring the radioactivity in the cell lysate with a liquid scintillation counter. Glycine uptake in the presence of 10 μM ALX^5407 was defined as non-specific uptake, and the value calculated by subtracting the amount of the non-specific uptake from the total uptake in the absence of 10 μM ALX5407 was defined as specific uptake. In addition, glycine uptake inhibitory activity (IC50 value) was calculated from an inhibition curve at the concentrations of each test substance ranging from 10^−9 to 10^−5 M.
It should be noted that ALX^5407 is an HCl salt of N-[(3R)-3-([1,1′-biphenyl]-4-yloxy)-3-(4-fluorophenyl)propyl]-N-methylglycine.

## CCOc1cnc(N2C[C@H]([C@@H](F)CC)N(CC(=O)Nc3cc(C(F)(F)F)ccn3)C2=O)nc1 [Compound 220]
  IC50: 17 nM

## CC(C)[C@H]1CN(c2ncc(Cl)cn2)C(=O)N1CC(=O)Nc1cc(C(F)(F)F)ccn1 [Compound 62]
  IC50: 33 nM

## O=C(CN1C(=O)N(c2ncc(C(F)(F)F)cc2F)C[C@@H]1CC1CC1)Nc1cc(Cl)ccn1 [Compound 152]
  IC50: 43 nM

## CC[C@H](C)[C@H]1CN(c2ncc(C3CC3)cn2)C(=O)N1CC(=O)Nc1cc(Cl)ccn1 [Compound 249]
  IC50: 18 nM

## O=C(CN1C(=O)N(c2ccc(C(F)(F)F)nc2)C[C@@H]1c1ccccc1)Nc1cccc(C(F)(F)F)c1 [Compound 12]
  IC50: 71 nM

## CC(C)[C@H]1CN(c2ccc(C(F)(F)F)nc2)C(=O)N1CC(=O)Nc1cncc(Cl)c1 [Compound 61]
  IC50: 53 nM

## CCOc1ccc(N2C[C@H](C(C)C)N(CC(=O)Nc3cc(Cl)ccn3)C2=O)nc1 [Compound 186]
  IC50: 45 nM

## CC(C)[C@H]1CN(c2ncc(C3CC3)cn2)C(=O)N1CC(=O)Nc1cc(C(F)(F)F)ccn1 [Compound 193]
  IC50: 22 nM

## CC(C)[C@H]1CN(c2ccc(F)cn2)C(=O)N1CC(=O)Nc1cccc(C(F)(F)F)c1 [Compound 11]
  IC50: 89 nM

## COC(C)(C)[C@H]1CN(c2ccc(C(F)(F)F)nc2)C(=O)N1CC(=O)Nc1cc(C(F)(F)F)ccn1 [Compound 148]
  IC50: 75 nM

## CCc1ccnc(NC(=O)CN2C(=O)N(c3cnc(C(F)(F)F)nc3)C[C@@H]2C(C)C)c1 [Compound 165]
  IC50: 150 nM

## CCc1cnc(N2C[C@H](C(C)C)N(CC(=O)Nc3ccc(C(F)(F)F)nc3)C2=O)nc1 [Compound 104]
  IC50: 240 nM

## CCOc1cnc(N2C[C@H]([C@@H](C)CC)N(CC(=O)Nc3cc(Cl)ccn3)C2=O)nc1 [Compound 248]
  IC50: 16 nM

## CC(C)[C@H]1CN(c2ccc(C(F)(F)F)nc2)C(=O)N1CC(=O)Nc1cc(C(C)(C)C)no1 [Compound 103]
  IC50: 230 nM

## CC(C)[C@H]1CN(c2ncc(F)cn2)C(=O)N1CC(=O)Nc1cc(Cl)ccn1 [Compound 188]
  IC50: 600 nM

## CCOc1cnc(N2C[C@H]([C@@H](C)CC)N(CC(=O)Nc3cc(C4CC4)ccn3)C2=O)nc1 [Compound 250]
  IC50: 24 nM

## CC(C)[C@H]1CN(c2ccc(C(F)(F)F)nc2)C(=O)N1CC(=O)Nc1nnc(C(F)(F)F)s1 [Compound 54]
  IC50: 800 nM

## COc1cnc(N2C[C@H](C(C)C)N(CC(=O)Nc3cc(C(F)(F)F)ccn3)C2=O)nc1 [Compound 93]
  IC50: 54 nM

## O=C(CN1C(=O)N(c2ccc(C(F)(F)F)nc2)C[C@@H]1CC1CCCCC1)Nc1cccc(C(F)(F)F)c1 [Compound 8]
  IC50: 660 nM

## CC(C)(C)[C@H]1CN(c2ccc(C(F)(F)F)nc2)C(=O)N1CC(=O)Nc1cccc(C(F)(F)F)c1 [Compound 13]
  IC50: 74 nM

Reference: patent US8796272B2, “Glycine transporter-inhibiting substances” (Taisho Pharmaceutical Co., Ltd, priority 2011, dated 2014)
